Test results published in patent US9403800B2, “Compounds for inhibition of cancer cell proliferation” (ChemRegen, Inc., priority 2012, dated 2016).

How the values were obtained:
[1] = system: Wnt transcriptional activity; assay: cell-based Wnt-luciferase reporter assay (SuperTOPFlash); details: for Relative potency for Wnt inhibition: relative to IWR-1, transfected HEK293A cells treated 12 hours, normalized to Renilla; for inhibition of Wnt transcriptional activity (in words): Wnt-luciferase reporter
Source text: “Hit” 1 (FIG. 1) was identified as a Wnt inhibitor in a high-throughput screen of a library of 74,000 compounds using a cell-based Wnt-luciferase reporter assay as a readout of Wnt transcriptional activity. […] Wnt transcriptional activity was monitored in HEK-293T cells using a luciferase-based Wnt reporter (SuperTOPFlash) stimulated by Wnt3a conditioned media.
Medicinal chemical refinement of “hit” 1 was undertaken to improve its potency, maintain non-toxicity, increase water solubility and improve bioavailability. The SAR refinement of functional activity of “hit” 1 on the inhibition of the Wnt pathway was determined using a cell-based Wnt-luciferase reporter assay (described above). with Renilla Luciferase was used as a normalization for transfection efficiency. 6-8 hours after transfection, transfected HEK293A cells were treated with 1 and each analog for 12 hours. Both firefly and renilla luciferase activities were measured using a plate reader. A library of compounds was tested to obtain an SAR for 1. Compound 1 and its analogs are synthesized by a two step synthesis, Scheme 1.
Signaling was tested using a standard luciferase response system for canonical Wnt/β-catenin/TCF signaling. Briefly, we used a cell line that had been transfected with a luciferase reporter gene under the control of the response element of a transcription factor that is activated by association with β-catenin and is the target of canonical Wnt signaling.

[2] = chemical stability by HPLC; type: physicochemical; details: determined by HPLC
Source text: As observed from the data presented in Table 1, both free bases and salts gave significant Wnt inhibition potency. On the basis of the lipophilic character of many of the analogs, it is likely interaction site on the molecular target has a lipophilic character although polar interactions are apparent. To increase solubility, were possible, hydrochloride salts of the sulfonamides were synthesized. To afford appropriate bioavailability, sulfonamides were synthesized with chemical and metabolic stability in mind.

pharmacokinetics in rats = details: rat, in vivo
[3] = system: canonical Wnt target genes, Cyclin D1 (CCND1), Axin2 (AXIN2), and c-Myc (c-MYC); assay: mRNA levels of canonical Wnt target genes in HEK293T and SW480 cells; type: cell-based; details: HEK293T and SW480 colorectal cells
[4] = system: SW480 colorectal cancer model cell line; assay: SW480 cell proliferation and cell cycle (InCell 1000); type: cell-based, human
Source text: Previous studies have shown that the Wnt signaling pathway drives cellular proliferation of a number of cancers through up-regulation of genes for several proteins crucial for cell division including Cyclin D1, c-Myc, etc. and treatment of cancer cells with 1 or analogs decreases cellular proliferation. Accordingly, we examined the effect of 1 and analogs on cell proliferation of human cancer cell lines. […] The results were confirmed by studying the effects of 1 on SW480 human colon cell cycle determined by cell images captured by InCell 1000.

Structure (SMILES)	Relative potency for Wnt inhibition [1]	further results
CC(=O)N(C)c1ccc(S(=O)(=O)N2CCCc3ccccc32)cc1 [Compound 26, N-(4-(3,4-dihydroquinolin-1(2H)-ylsulfonyl)phenyl)-N-methylacetamide]	+ (<20% potency compared to compound IWR-1)	–
O=C1CCCN1c1ccc(S(=O)(=O)Nc2ccccc2OC(F)(F)F)cc1 [Compound 19, 4-(2-oxopyrrolidin-1-yl)-N-(2-(trifluoromethoxy)phenyl)benzenesulfonamide]	+ (<20% potency compared to compound IWR-1)	–
O=C1CCCN1c1ccc(S(=O)(=O)N2CCCc3cc(F)ccc32)cc1 [Compound 6, 1-(4-(6-fluoro-3,4-dihydroquinolin-1(2H)-ylsulfonyl)phenyl)pyrrolidin-2-one]	+++ (between 40 to 60% potency compared to IWR-1)	chemical half life [2]: No change
Cc1ccc2c(c1)CCN(S(=O)(=O)c1ccc(N3CCCC3=O)cc1)C2 [Compound 13, 1-(4-(6-methyl-3,4-dihydroisoquinolin-2(1H)-ylsulfonyl)phenyl)pyrrolidin-2-one]	+ (<20% potency compared to compound IWR-1)	–
CCCN(c1ccccc1)S(=O)(=O)c1ccc(N2CCCC2=O)cc1 [Compound 23, 4-(2-oxopyrrolidin-1-yl)-N-phenyl-N-propylbenzenesulfonamide]	+ (<20% potency compared to compound IWR-1)	–
O=C1CCCN1c1ccc(S(=O)(=O)Nc2ccccc2)cc1 [Compound 17, 4-(2-oxopyrrolidin-1-yl)-N-phenylbenzenesulfonamide]	+ (<20% potency compared to compound IWR-1)	–
COC1CCN(c2ccc(S(=O)(=O)N3CCN(C)c4ccccc43)cc2)C1=O (stereo not shown) [Compound 27, 3-methoxy-1-(4-(4-methyl-3,4-dihydroquinoxalin-1(2H)-ylsulfonyl)phenyl)-pyrrolidin-2-one]	+ (<20% potency compared to compound IWR-1)	–
CCCCN(c1ccccc1)S(=O)(=O)c1ccc(N2CCCC2=O)cc1 [Compound 24, N-butyl-4-(2-oxopyrrolidin-1-yl)-N-phenylbenzenesulfonamide]	+ (<20% potency compared to compound IWR-1)	–
CN1CCN(S(=O)(=O)c2ccc(N3CCC(O)C3=O)cc2)c2ccccc21 (stereo not shown) [Compound 28, 3-hydroxy-1-(4-(4-methyl-3,4-dihydroquinoxalin-1(2H)-ylsulfonyl)phenyl)-pyrrolidin-2-one]	+++ (between 40 to 60% potency compared to IWR-1)	–
CN1CCN(S(=O)(=O)c2ccc(N3CCCC3)cc2)c2ccccc21 [Compound 31, 1-methyl-4-(4-(pyrrolidin-1-yl)phenylsulfonyl)-1,2,3,4-tetrahydroquinoxaline]	++++ (between 60 to 80% potency compared to IWR-1)	bioavailability (pharmacokinetics in rats): 11%
O=C1CCCN1c1ccc(S(=O)(=O)N2CCCCC2)cc1 [Compound 21, 1-(4-(piperidin-1-ylsulfonyl)phenyl)pyrrolidin-2-one]	+ (<20% potency compared to compound IWR-1)	–
Cc1ccc2c(c1)N(S(=O)(=O)c1ccc(N3CCCC3=O)cc1)CCC2 [Compound 11, 1-(4-(7-methyl-3,4-dihydroquinolin-1(2H)-ylsulfonyl)phenyl)pyrrolidin-2-one]	++++ (between 60 to 80% potency compared to IWR-1)	–
COc1ccc2c(c1)CCCN2S(=O)(=O)c1ccc(N2CCCC2=O)cc1 [Compound 7, 1-(4-(6-methoxy-3,4-dihydroquinolin-1(2H)-ylsulfonyl)phenyl)pyrrolidin-2-one]	++++ (between 60 to 80% potency compared to IWR-1)	half-life [2]: 37 h
CC(C)(C)c1ccc2c(c1)CCCN2S(=O)(=O)c1ccc(N2CCCC2=O)cc1 [Compound 9, 1-(4-(6-tert-butyl-3,4-dihydroquinolin-1(2H)-ylsulfonyl)phenyl)pyrrolidin-2-one]	+ (<20% potency compared to compound IWR-1)	–
O=C1CCCN1c1ccc(S(=O)(=O)N2CCc3ccccc3C2)cc1 [Compound 12, 1-(4-(3,4-dihydroisoquinolin-2(1H)-ylsulfonyl)phenyl)pyrrolidin-2-one]	++++ (between 60 to 80% potency compared to IWR-1)	–
O=C1CCCN1c1ccc(S(=O)(=O)N2CCCc3cc(Cl)ccc32)cc1 [Compound 5, 1-(4-(6-chloro-3,4-dihydroquinolin-1(2H)-ylsulfonyl)phenyl)pyrrolidin-2-one]	++++ (between 60 to 80% potency compared to IWR-1)	–
CN1CCN(S(=O)(=O)c2ccc(N3CCC(O)C3)cc2)c2ccccc21 (stereo not shown) [Compound 34, 1-(4-(4-methyl-3,4-dihydroquinoxalin-1(2H)-ylsulfonyl)phenyl)pyrrolidin-3-ol]	+++ (between 40 to 60% potency compared to IWR-1)	–
CC(=O)c1ccc(NN=C(C(N)=O)C2=NC(C)(C)Cc3ccccc32)cc1 [IQ-1]	–	mRNA levels of canonical Wnt target genes CCND1, AXIN2, c-MYC [3]: enhanced mRNA expression
O=C1CCCN1c1ccc(S(=O)(=O)N2CCCc3cc(C(F)(F)F)ccc32)cc1 [Compound 8, 1-(4-(6-(trifluoromethyl)-3,4-dihydroquinolin-1(2H)-ylsulfonyl)phenyl)-pyrrolidin-2-one]	+++ (between 40 to 60% potency compared to IWR-1)	–
O=C1CCCN1c1ccc(S(=O)(=O)Nc2cccc3ccccc23)cc1 [Compound 20, N-(naphthalen-1-yl)-4-(2-oxopyrrolidin-1-yl)benzenesulfonamide]	+ (<20% potency compared to compound IWR-1)	–
COc1ccccc1NS(=O)(=O)c1ccc(N2CCCC2=O)cc1 [Compound 18, N-(2-methoxyphenyl)-4-(2-oxopyrrolidin-1-yl)benzenesulfonamide]	+ (<20% potency compared to compound IWR-1)	–
O=C(Nc1cccc2cccnc12)c1ccc(N2C(=O)[C@@H]3[C@H](C2=O)[C@@H]2C=C[C@H]3C2)cc1 [IWR-1, reference compound]	–	cell cycle distribution ([4]; SW480 cells, InCell 1000 images): did not alter either the rate of SW480 cell proliferation or cell cycle; cancer cell proliferation (in words) ([4]; SW480 colon cancer cell line): did not alter either the rate of SW480 cell proliferation or cell cycle; mRNA levels of canonical Wnt target genes CCND1, AXIN2, c-MYC [3]: decreased mRNA expression
Cc1ccc2c(c1)CN(S(=O)(=O)c1ccc(N3CCCC3=O)cc1)CC2 [Compound 14, 1-(4-(7-methyl-3,4-dihydroisoquinolin-2(1H)-ylsulfonyl)phenyl)pyrrolidin-2-one]	+++ (between 40 to 60% potency compared to IWR-1)	–
O=C1CCCCN1c1ccc(S(=O)(=O)N2CCCc3ccccc32)cc1 [Compound 25, 1-(4-(3,4-dihydroquinolin-1(2H)-ylsulfonyl)phenyl)piperidin-2-one]	+ (<20% potency compared to compound IWR-1)	inhibition of Wnt transcriptional activity (in words) [1]: did not inhibit Wnt transcriptional activity
CN1CCN(S(=O)(=O)c2ccc(-n3cccn3)cc2)c2ccccc21 [Compound 33, 1-(4-(1H-pyrazol-1-yl)phenylsulfonyl)-4-methyl-1,2,3,4-tetrahydroquinoxaline]	+ (<20% potency compared to compound IWR-1)	–
CCC1CCCCN1S(=O)(=O)c1ccc(N2CCCC2=O)cc1 (stereo not shown) [Compound 22, 1-(4-(2-ethylpiperidin-1-ylsulfonyl)phenyl)pyrrolidin-2-one]	+ (<20% potency compared to compound IWR-1)	–
CN1CCN(S(=O)(=O)c2ccc(N3CCC=N3)cc2)c2ccccc21 [Compound 32, 1-(4-(4,5-dihydro-1H-pyrazol-1-yl)phenylsulfonyl)-4-methyl-1,2,3,4-tetrahydroquinoxaline]	++++ (between 60 to 80% potency compared to IWR-1)	–
O=C1CCCN1c1ccc(S(=O)(=O)N2CCCC3CCCCC32)cc1 (stereo not shown) [Compound 3, 1-(4-(octahydroquinolin-1(2H)-ylsulfonyl)phenyl)pyrrolidin-2-one]	–	inhibition of Wnt transcriptional activity (in words) [1]: potent inhibition of Wnt
